pEC50: −log10 of the molar value.
Molecular target: human activated kallikrein enzyme (plasma kallikrein) (Homo sapiens (Human), UniProt P03952)
Experiment: Inhibition of human activated plasma kallikrein, fluorogenic peptide substrate assay, 500 pM enzyme format
Assay type: biochemical
Conditions: 500 pM activated kallikrein enzyme, 300 uM Pro-Phe-Arg-7-amido-4-methylcoumarin substrate, 30 min preincubation, 10 min at RT; read-out: Primary Dose Response Assay: Average EC50
Method in brief: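 Buffer 20 mM Tris pH 7.5, EDTA, NaCl, PEG-400, Triton X-100; 300 uM Pro-Phe-Arg-AMC; enzyme–inhibitor preincubation 30 min RT. Format one: 500 pM kallikrein, 10 min RT reaction; format two: 5 pM kallikrein, 18 h RT reaction. Fluorescence read at 460 nm (380 nm excitation).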

Sequence of human activated kallikrein enzyme (plasma kallikrein) (P03952 391-638): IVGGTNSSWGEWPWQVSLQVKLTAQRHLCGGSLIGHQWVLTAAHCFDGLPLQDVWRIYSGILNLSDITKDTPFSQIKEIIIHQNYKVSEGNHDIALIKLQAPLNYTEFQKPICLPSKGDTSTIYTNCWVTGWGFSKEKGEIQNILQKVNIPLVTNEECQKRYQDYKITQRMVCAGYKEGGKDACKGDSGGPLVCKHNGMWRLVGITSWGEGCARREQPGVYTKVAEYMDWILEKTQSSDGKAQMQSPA
Sequence of human activated kallikrein enzyme (plasma kallikrein) (P03952 20-390 partner): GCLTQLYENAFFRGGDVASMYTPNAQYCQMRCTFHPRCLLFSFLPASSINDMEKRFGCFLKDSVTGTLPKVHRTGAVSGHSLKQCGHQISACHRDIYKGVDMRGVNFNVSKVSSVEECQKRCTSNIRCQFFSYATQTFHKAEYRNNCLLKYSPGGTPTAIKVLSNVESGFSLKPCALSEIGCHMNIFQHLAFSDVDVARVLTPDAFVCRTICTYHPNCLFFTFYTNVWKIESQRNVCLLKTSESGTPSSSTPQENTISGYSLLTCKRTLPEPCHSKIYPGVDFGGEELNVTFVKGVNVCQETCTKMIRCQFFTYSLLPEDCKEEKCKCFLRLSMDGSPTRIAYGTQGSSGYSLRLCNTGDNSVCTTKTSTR

pEC50	SMILES
5.70 to 7.00	COC(=O)c1c(Cn2cc(C(=O)NCc3ncn4ccc(Cl)c(F)c34)nn2)[nH]c2cc(C3CC3)ccc12 [Example I-195, methyl 2-((4-(((7-chloro-8-fluoroimidazo[1,5-a]pyridin-1-yl)methyl)carbamoyl)-1H-1,2,3-triazol-1-yl)methyl)-6-cyclopropyl-1H-indole-3-carboxylate]
5.70 to 7.00	O=C(NCc1ncn2ccc(Cl)c(F)c12)c1cn(Cc2cc3ccc(Cl)cc3o2)nn1 [Example I-197, N-((7-chloro-8-fluoroimidazo[1,5-a]pyridin-1-yl)methyl)-1-((6-chlorobenzofuran-2-yl)methyl)-1H-1,2,3-triazole-4-carboxamide]
> 9.00	O=C(NCc1ncn2ccc(Cl)c(F)c12)c1cn(Cc2cn3cc(C4CC4)cc(C4CCOC4=O)c3n2)nn1 (stereo not shown) [Example I-199, N-((7-chloro-8-fluoroimidazo[1,5-a]pyridin-1-yl)methyl)-1-((6-cyclopropyl-8-(2-oxotetrahydrofuran-3-yl)imidazo[1,2-a]pyridin-2-yl)methyl)-1H-1,2,3-triazole-4-carboxamide]
> 9.00	O=C(NCc1ncn2ccc(Cl)c(F)c12)c1cn(Cc2cn3cc(C4CC4)cc(Cn4cccn4)c3n2)nn1 [Example I-201, 1-((8-((1H-pyrazol-1-yl)methyl)-6-cyclopropylimidazo[1,2-a]pyridin-2-yl)methyl)-N-((7-chloro-8-fluoroimidazo[1,5-a]pyridin-1-yl)methyl)-1H-1,2,3-triazole-4-carboxamide]

More lines, now with the values behind:

SMILES	pEC50
O=C(O)c1cnn(Cc2cc(C3CC3)cn3cc(Cn4cc(C(=O)NCc5ncn6ccc(Cl)c(F)c56)nn4)nc23)c1 [Example I-193, 1-((2-((4-(((7-chloro-8-fluoroimidazo[1,5-a]pyridin-1-yl)methyl)carbamoyl)-1H-1,2,3-triazol-1-yl)methyl)-6-cyclopropylimidazo[1,2-a]pyridin-8-yl)methyl)-1H-pyrazole-4-carboxylic acid]	> 9.00
O=C(NCc1ncn2ccc(Cl)cc12)c1cn(Cc2cn3cc(C4CC4)cc(CCc4nnn[nH]4)c3n2)nn1 [Example I-194, 1-((8-(2-(1H-tetrazol-5-yl)ethyl)-6-cyclopropylimidazo[1,2-a]pyridin-2-yl)methyl)-N-((7-chloroimidazo[1,5-a]pyridin-1-yl)methyl)-1H-1,2,3-triazole-4-carboxamide]	> 9.00
O=C(NCc1ncn2ccc(Cl)c(F)c12)c1coc(Cc2cn3cc(C4CC4)ccc3n2)n1 [Example I-196, N-((7-chloro-8-fluoroimidazo[1,5-a]pyridin-1-yl)methyl)-2-((6-cyclopropylimidazo[1,2-a]pyridin-2-yl)methyl)oxazole-4-carboxamide]	8.00 to 9.00
CC(c1cn2cc(C3CC3)ccc2n1)n1cc(C(=O)NCc2ncn3ccc(Cl)c(F)c23)nn1 (stereo not shown) [Example I-198, N-((7-chloro-8-fluoroimidazo[1,5-a]pyridin-1-yl)methyl)-1-(1-(6-cyclopropylimidazo[1,2-a]pyridin-2-yl)ethyl)-1H-1,2,3-triazole-4-carboxamide]	> 9.00
O=C(NCc1ncn2ccc(Br)c(F)c12)c1cn(Cc2cn3cc(C4CC4)cc(F)c3n2)nn1 [Example I-200, N-((7-bromo-8-fluoroimidazo[1,5-a]pyridin-1-yl)methyl)-1-((6-cyclopropyl-8-fluoroimidazo[1,2-a]pyridin-2-yl)methyl)-1H-1,2,3-triazole-4-carboxamide]	> 9.00
O=C(O)c1ccn(Cc2cc(C3CC3)cn3cc(Cn4cc(C(=O)NCc5ncn6ccc(Cl)c(F)c56)nn4)nc23)n1 [Example I-202, 1-((2-((4-(((7-chloro-8-fluoroimidazo[1,5-a]pyridin-1-yl)methyl)carbamoyl)-1H-1,2,3-triazol-1-yl)methyl)-6-cyclopropylimidazo[1,2-a]pyridin-8-yl)methyl)-1H-pyrazole-3-carboxylic acid]	> 9.00

— US10730874B2 (Shire Human Genetic Therapies, Inc., priority 2018, dated 2020)
